# Measured values reported in patent US11116778B2, “Prodrugs of ALOX-15 inhibitors and methods of using the same” (EMPIRICO INC., priority 2019, dated 2021).
# Key:
# [1] = molecular target: T1, 15-lipoxygenase in primary peripheral blood eosinophils (Homo sapiens, UniProt P16050); experiment: Inhibition of 15-lipoxygenase in human primary eosinophils, 15(S)-HETE ELISA; settings: 3 μM arachidonic acid
# T1 sequence (P16050 1-662): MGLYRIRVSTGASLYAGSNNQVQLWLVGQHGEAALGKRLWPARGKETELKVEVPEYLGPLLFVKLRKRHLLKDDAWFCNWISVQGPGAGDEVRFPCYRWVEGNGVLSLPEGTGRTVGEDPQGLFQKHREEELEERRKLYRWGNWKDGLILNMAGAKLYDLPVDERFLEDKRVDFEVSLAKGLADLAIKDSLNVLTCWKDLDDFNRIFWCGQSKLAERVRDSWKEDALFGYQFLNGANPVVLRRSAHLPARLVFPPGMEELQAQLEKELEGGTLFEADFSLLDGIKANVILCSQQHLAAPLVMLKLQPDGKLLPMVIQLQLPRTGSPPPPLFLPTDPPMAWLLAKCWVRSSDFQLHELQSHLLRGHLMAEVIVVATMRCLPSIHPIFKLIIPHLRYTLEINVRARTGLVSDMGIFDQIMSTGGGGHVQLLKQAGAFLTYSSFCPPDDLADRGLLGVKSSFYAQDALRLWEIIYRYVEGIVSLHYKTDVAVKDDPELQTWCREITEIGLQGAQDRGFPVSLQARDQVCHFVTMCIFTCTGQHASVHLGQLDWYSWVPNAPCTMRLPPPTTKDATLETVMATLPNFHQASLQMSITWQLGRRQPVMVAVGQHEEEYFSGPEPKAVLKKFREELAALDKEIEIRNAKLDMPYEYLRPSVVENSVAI
# Protocol: Primary peripheral blood eosinophils from 2 separate donors (StemExpress) were thawed from frozen and allowed to recover in growth media for 4 hours at 37° C. Cells were washed with Hank's Balanced Salt Solution, then aliquoted into 96 well round bottomed plate at 1*10^5 cells/well, 200 μL/well. […] Arachidonic acid was added to final concentration of 3 μM and experiment started. At 1 hour post-treatment the supernatant was collected and 15(S)-HETE was quantified by ELISA (Cayman Chemical) according to manufacturer's recommended protocol. Comparisons were made between the cells treated with the test compounds and cells treated with vehicle only.
# [2] = Levels of compound 3 and compound 5 in rabbit nasal lavage and serum after nasal administration of compound 5; type: in vivo; settings: rabbits
# Protocol: Six (6) female NZW rabbits were employed in this study. Rabbits were obtained from Covance (Denver Pa.). Rabbits were between approximately 10 and 12 months of age at the time of study start. At time point 0, all animals received 50 μL of solution containing rabbit IL4 (RND Systems/Biotechne) and human IL13 (PreproTech) at a concentration of 0.25 mg/mL each in 0.5×PBS containing 12.5 mg/mL BSA per nostril. This was administered intranasally via a venous catheter attached to a micropipette. The animal was positioned in a supine manner and the venous catheter inserted into the nostril. The volume was introduced into the nasal cavity and the same procedure was repeated with the other nostril.
# At the 2, 4, and 6 hour time points, animals in Group 1 (n=3) received 0.2 mL of vehicle (0.9% saline) per nostril and the animals in Group 2 (n=3) received 0.2 mL of compound 5 (10 mM) in vehicle per nostril. The dosing of vehicle and compound 5 proceed as follows: The animal was positioned in a supine manner in a restraint bag and a mucosal atomization device (MAD) attached to the pre-filled tuberculin syringe was inserted into the nostril and introduced into the nasal cavity. The same procedure was repeated with the other nostril.
# At the 8 hour time point, all the nostrils of all animals were lavaged with 1 mL of 0.9% saline per nostril and the resulting fluid collected. Intranasal lavages were performed as follows: The animals were held sternally in a restraint bag with the head over the edge of the table and the rear of the animal elevated higher than the head. A flexible venous catheter was inserted in the nostril until resistance was felt. The 1 mL of saline was introduced through the catheter into the nasal cavity. The nasal lavage returned from the nostril was collected via a funnel into a conical tube and the approximate volume recorded. This procedure was repeated for the other nostril. The lavage was stored at approximately −70° C. until analysis. Following (<10 minutes) the 8 hour time point lavage, blood was collected from all animals, processed to serum, and frozen at approximately −70° C. until analysis.
# Nasal lavage and serum samples were analyzed for the levels of compound 3 and compound 5. Frozen tissue samples were weighed (20-120 mg) and placed into 2 mL CK14 homogenizing tubes (Bertin) and 500 μL of methanol containing 1 mM butylated hydroxy toluene (BHT) and 1 mM tris(2-carboxyethyl)phosphine (TCEP) was added. The tubes were placed in a Precellys 24 tissue homogenizer (Bertin) and run at 6000 rpm six times for 20 seconds with a 10 second pause between cycles. The tubes containing the homogenized tissue were then placed in a microfuge and centrifuged for 5′ at 14,000 rpm to pellet any insoluble material. Compound 3 was quantified using LC-MS/MS (QTrap5500, Applied Biosystems). Q1/Q3 Masses: 306.00/135.00 using a deschloro derivative of compound 3 (lacking chlorine at 4 position of pyrazole ring) as an internal standard. The Q1/Q3 Masses are 272.00/101.00 Da for the internal standard. Compound 3 was extracted using liquid/liquid extraction with methanol as a diluent. […] Compound 5 was quantified using LC-MS/MS (QTrap5500, Applied Biosystems). […] Compound 5 was detected in the lavage samples from Group 2 animals (rabbit 1, rabbit 2, rabbit 3) and ranged in average concentration from 0.016 uM-0.35 uM. […]
structure (smiles),measurement,setting,value
"O=C(Nc1ccc(F)cc1Cl)c1nn(COP(=O)(O)O)c(Cl)c1Cl [compound 5, (4,5-dichloro-3-((2-chloro-4-fluorophenyl)carbamoyl)-1H-pyrazol-1-yl)methyl dihydrogen phosphate]",decrease in 15-HETE production compared to vehicle or ALP alone (FIG. 2),"[1]; 10 μM pretreated 15 minutes with 0.2 U alkaline phosphatase (ALP), 1 hour",approximately 60%
same,decrease in 15-HETE production compared to vehicle or ALP alone (FIG. 2),"[1]; 10 μM, 1 hour post-treatment",approximately 40%
same,concentration at 8 h,"[2]; female, NZW, rabbit, nasal lavage, other: intranasal (mucosal atomization device), 0.2 mL of 10 mM compound 5 per nostril at 2, 4, 6 hours, lavage at 8 hours, range over 3 rabbits, read-out: average concentration of compound 5 in nasal lavage (FIG. 8)",16 to 350 nM
same,level in serum samples,"[2]; intranasal compound 5 10 mM, blood after the 8 hour lavage",no quantifiable
same,conversion of compound 5 to compound 3 in nasal lavage (FIG. 8),"[2]; intranasal compound 5 10 mM, lavage at 8 hours",majority of compound 5 was converted to compound 3
